Measured values reported in PMC10017027, “Design and Synthesis of Novel HIV-1 NNRTIs with Bicyclic Cores and with Improved Physicochemical Properties” (Journal of Medicinal Chemistry, 2023).
Converted amounts (≈) assume the structure as drawn. Read-outs that look alike come from different tables or passages of the source.

Assays:
[1] = Predicted clearance in human liver microsomes; assay type: in vitro ADME; conditions: pH 7.4, 1 μM compound, read-out: HLM CLint, pred (converted)
Procedure: Next, microsome stability was profiled in purified human liver microsomes (HLM).
Metabolic stability of compounds was assessed using HLM (Corning cat. 457117).[52] In this assay, 10 nL compounds at a concentration of 1 mM in 100% DMSO are dispensed into 384-well polypropylene plates using the Echo 550 acoustic liquid dispenser (Labcyte). Each plate contains 384 wells with a single test compound in each well.
A solution of HLM at 2 mg/mL in 100 mM K2HPO4/KH2PO4 pH 7.4 with 0.0225 mg/mL Alamethicin from Trichoderma viride (Sigma-Aldrich cat. A4665-10MG) was incubated on ice for 15 min. 5 μL of this solution was added to individual wells following 15 min incubation at room temperature; and supplemented with 5 μL NADPH Regenerating Solution of cofactors (Corning Gentest UGT Reaction Mix solutions A and B, cat. 451200 and 451220) containing 100 mM K2HPO4/KH2PO4 pH 7.4, 2.6 mM NADP^+, 6.6 mM glucose-6-phosphate, 6.6 mM MgCl2, 0.8 U/mL glucose-6-phosphate dehydrogenase, 0.1 mM sodium citrate, and 6.8 mM uridine diphosphate-glucuronic acid. The final concentration of analyte compounds at the beginning of the reactions was 1 μM. The reactions were incubated at 37 °C, and time points of 0, 5, 15, 30, 40, 50, 60, and 70 min were collected for further analysis. Background data were collected using reactions without analyte compounds.
Upon collection of the reaction time points, samples were quenched at the set time points with 30 μL of a solution of 72% acetonitrile, 8% methanol, 0.1% formic acid, 19.9% water, and labetalol as an internal standard (IS) at a concentration of 650 nM. Reaction plates were span in a centrifuge at a speed of 4000 rcf for 30 min and 4 °C, following a dilution of the 10 μL quenched reaction into 40 μL de-ionized water, yielding assay plates.
Samples were analyzed by a solid-phase extraction coupled with a quadrupole time-of-flight mass spectrometer, using an Agilent QToF 6530 RapidFire 360 system with C4 type A solid state cartridges. Analysis was performed in either positive or negative ionization modes. Mobile phases contained 0.1% formic acid in water for loading analytes onto solid state extraction cartridges, and 0.1% formic acid in acetonitrile for elution into the mass spectrometer in positive ionization mode, or 0.1% acetic acid in water for loading and 0.1% acetic acid in acetonitrile for extraction in negative ionization mode. Peak-area ratios of integrated counts for individual compounds to IS were plotted as a semi-logarithmic chart of log versus time. Initial, linear portion of decay was fitted to a linear regression equation to derive the half-time of a compound decay.
Pharmacological parameters for an analyte compound metabolism were calculated using the equations described in Table S2.
Table S2. Pharmacological parameters for an analyte compound metabolism were
calculated using the following equations:
Intrinsic Clearance (in Cl = ln 2
int, in vitro T1/2 ∗ Conc
Intrinsic Clearance Cl = Clint, in vitro ∗ Liver Mass ∗ Yield
Predicted Hepatic Cl = Clint ∗ QH
QH (Hepatic Blood Flow) = 1.3 L/hr/kg

[2] = Solubility assessment, shake-flask method; assay type: physicochemical; conditions: for solubility: shake-flask
Procedure: Compound solubility was measured at Analiza (Cleveland, OH) by the standard shake-flask method at pH 1.2 and 7.4 and quantitated by HPLC-UV.

HIV-1 HXB2 Y181C variant = assay: MT-4 antiviral cytopathic effect assay, HXB2-Y181C; assay type: cell-based; conditions: for EC50: Human immunodeficiency virus 1, HXB2, read-out: EC50 Y181C
Procedure: (§1) The prepared compounds were tested for their anti-HIV-1 activity (Table 1). A viral cytopathic effect assay in MT-4 cells with HIV-1 IIIB virus was used to determine compound potency (EC50, 50% cell viability) in protecting virus induced cell killing. Compound cytotoxicity was assessed in MT-4 cells in the absence of virus (CC50, 50% cytotoxicity). […] ETV contains bromo and amino substitutions on the DAPY core. […] Likely, with the smaller cyano arm I in 1, 3, and 5, the cores could be further elaborated to optimize the compound position in the pocket and to improve potency.
(§2) Compounds were tested in a high-throughput 384-well assay format for their ability to inhibit the virus replication-induced cytopathic effect in MT-4 cell cultures acutely infected with HIV-1 (IIIB strain), HXB2, HXB2-K103N, and HXB2-Y181C. Compounds were serially diluted (1:3) in DMSO on 384-well polypropylene plates and further diluted 200-fold into complete RPMI media (10% FBS, 1% P/S) using Biotek Micro Flow and an Agilent ECHO acoustic dispenser. Each plate contained up to eight test compounds, with negative (no drug control) and 5 μM AZT positive controls. MT-4 cells were further diluted in complete RPMI media and added to each plate using a Micro-Flo dispenser. After five days of incubation in a humidified and temperature-controlled incubator (37 °C), Cell Titer Glo (Promega) was added to the assay plates to quantify the amount of […]. EC50 and CC50 values were defined as the compound concentration that causes a 50% decrease in luminescence signal and were calculated using a sigmoidal dose-response model to generate curve fits.

E138K = conditions: cell culture; cited from earlier work
HIV-1 HXB2 K103N variant = assay: MT-4 antiviral cytopathic effect assay, HXB2-K103N; assay type: cell-based; conditions: for EC50: Human immunodeficiency virus 1, HXB2, read-out: EC50 K103N
Procedure: as §1, §2

in vitro = assay type: cell-based; conditions: human
Procedure: as §1, §2

[3] = MDCK permeability assay (A to B); assay type: in vitro ADME, Canine; conditions: dog, MDCK
Excerpt: (§3) Compounds were further tested in a Madin–Darby Canine Kidney (MDCK) assay to evaluate their potential for oral absorption. […] Additionally, there was no trend for better permeability when comparing arm I versus arm II when matched with the same core. The size of the B ring had the greatest influence on Papp with the trend being five-membered > six-membered > seven-membered rings (Table 1).
(§4) cMdr1-KO cells were maintained in Dulbecco’s modified Eagle’s medium (DMEM) with sodium pyruvate and GlutaMax, supplemented with 1% Pen/Strep and 10% fetal bovine serum in an incubator set at 37 °C, 90% humidity, and 5% CO2. MDCKII- cMdr1-KO cells were grown to confluence over 3 days on 96-well PET plates with 1 μm pore size, polyester membrane (Corning 3392). Experiments were run using HBSS donor buffer from Invitrogen containing an additional 10 mM HEPES, 15 mM glucose, and 0.1% BSA adjusted to pH 7.4. The receiver well had HBSS buffer supplemented with 1% BSA, 10 mM HEPES, 15 mM glucose, and the pH was adjusted to 7.4. TEER values were read to test membrane integrity at the beginning of the assay. The experiment was started by the addition of dosing solutions containing test compounds. Samples were taken from the donor compartment at 0/120 min and from the receiver compartment at 120 min. Each compound was tested in two separate replicate wells. All samples were immediately collected in a 72:8:20 MeCN/MeOH:H2O mix to precipitate protein and stabilize the test compounds. Cells were dosed on the apical side to determine forward (A to B) permeability. To test for non-specific binding and compound instability, the total amount of drug was quantified at the end of the experiment and compared to the material present in the original dosing solution as a percentage of recovery. Samples were analyzed by RF-QToF.

MDCKII-cMdr1-KO cells = assay: MDCK permeability assay (A to B); assay type: in vitro ADME, Canine; conditions: in words
Excerpt: as §3, §4

HIV-1 (IIIB strain) = assay: MT-4 antiviral cytopathic effect assay, HIV-1 IIIB; assay type: cell-based; conditions: Human immunodeficiency virus 1, IIIB, MT4, protects 50% of MT-4 cells against HIV-1-induced cell killing; HIV-1 IIIB, WT; read-out: EC50 MT4
Procedure: (§5) The prepared compounds were tested for their anti-HIV-1 activity (Table 1). A viral cytopathic effect assay in MT-4 cells with HIV-1 IIIB virus was used to determine compound potency (EC50, 50% cell viability) in protecting virus induced cell killing. Compound cytotoxicity was assessed in MT-4 cells in the absence of virus (CC50, 50% cytotoxicity).
as §2

HIV-1 HXB2 = assay: MT-4 antiviral cytopathic effect assay, HXB2 wild-type virus; assay type: cell-based; conditions: Human immunodeficiency virus 1, MT4; HIV-1 HXB2 wild-type, MT-4 cells; read-out: EC50 HXB2
Procedure: as §5, §2

[4] = HCl, pH 1.2, read-out: solubility HCl
[5] = phosphate-buffered saline, pH 7.4, read-out: solubility PBS
[6] = fold change: ratio of potency against HXB2 Y181C and parental HXB2
[7] = supplement CSV, fold change vs HXB2
[8] = fold change: ratio of potency against HXB2 K103N and parental HXB2
[9] = apparent permeability coefficient, A to B, pH 7.4

For Cc1cc(/C=C/C#N)cc(C)c1Nc1ccnc(Nc2ccc(C#N)cc2)n1 [RPV, rilpivirine, reference compound], the CLint scaled at 1.167 h, 1 µM [1] was 14.3 mL/min/kg, the solubility thermodynamic ([2]; HCl, pH 1.2, supplement CSV, read-out: HCl sol) was > 100 µM and the solubility [2, 4] was > 100 µM. For the same molecule, the solubility thermodynamic ([2]; PBS, pH 7.4, aqueous buffer, supplement CSV, read-out: PBS sol) was < 1 µM, the solubility [2, 5] was < 1 µM and the EC50 (HIV-1 HXB2 Y181C variant) was 3.8 nM. For the same molecule, the “Y181C (FC)” value (HIV-1 HXB2 Y181C variant; [6]) was 3.2, the “Y181C (FC)” value (HIV-1 HXB2 Y181C variant; [7]) was 3.2 and the “resistance conferred by E138K” value (E138K) was 2–3 fold. The EC50 (HIV-1 HXB2 K103N variant) was 1.5 nM, the “K103N (FC)” value (HIV-1 HXB2 K103N variant; [8]) was 1.3 and the “K103N (FC)” value (HIV-1 HXB2 K103N variant; [7]) was 1.3. The CC50 at 120 h (in vitro) was 6.5 µM, the Papp A→B at 120 min ([3]; supplement CSV) was 4.6 ×10⁻⁶ cm/s and the Papp A→B at 120 min [3, 9] was 4.6 ×10⁻⁶ cm/s. The “permeability (Papp) in the MDCK assay” value (MDCKII-cMdr1-KO cells) was “moderate”.
Cc1cc(C#N)cc(C)c1N1CCC(=O)Nc2cnc(Nc3ccc(C#N)cc3)nc21 [Compound 5, 4-{2-[(4-Cyanophenyl)amino]-6-oxo-5H,6H,7H,8H,9H-pyrimido[4,5-b][1,4]diazepin-9-yl}-3,5-dimethylbenzonitrile] gave a CLint scaled at 1.167 h, 1 µM [1] of 15.5 mL/min/kg, a solubility [2, 4] of 87.3 µM (≈ 35.7 µg/mL) and a solubility [2, 5] of 1.4 µM (≈ 0.573 µg/mL). For the same molecule, the HCl sol ([2]; supplement CSV) was 87.3 µM, the PBS sol ([2]; supplement CSV) was 1.4 µM and the EC50 (HIV-1 HXB2 Y181C variant) was 198 nM. The “Y181C (FC)” value (HIV-1 HXB2 Y181C variant; [6]) was 6.7, the “Y181C (FC)” value (HIV-1 HXB2 Y181C variant; [7]) was 6.7 and the EC50 (HIV-1 HXB2 K103N variant) was 70.7 nM. The “K103N (FC)” value (HIV-1 HXB2 K103N variant; [8]) was 2.4, the “K103N (FC)” value (HIV-1 HXB2 K103N variant; [7]) was 2.4 and the CC50 at 5 days (in vitro) was > 50 µM. It also gave a Papp A→B at 120 min ([3]; supplement CSV) of 3.5 ×10⁻⁶ cm/s, a Papp A→B at 120 min [3, 9] of 3.5 ×10⁻⁶ cm/s and an EC50 (HIV-1 (IIIB strain)) of 43.4 nM. It also gave an EC50 (HIV-1 HXB2) of 29.4 nM.
